Reference: publication PMC11579541, “In vitro, in vivo, and in silico approaches for evaluating the preclinical DMPK profiles of ammoxetine, a novel chiral serotonin and norepinephrine reuptake inhibitor” (Frontiers in Pharmacology, 2024)

Legend:
[1] = Hepatic microsome stability assay, MLM; type: in vitro ADME, monkey; settings: monkey, liver microsomes, pH 7.4; 1 μmol/L, 0.2 g/L microsomes, NADPH
Protocol: (§1) A hepatic microsome stability assay was conducted to investigate the metabolic disposition of ammoxetine. In this assay, 100 μL of ammoxetine (2.5 μmol/L) was incubated at 37°C with 100 μL of liver microsomes (RLM, DLM, MLM, or HLM) formulated in a 5 mmol/L dipotassium hydrogen phosphate (K2HPO4) buffer at pH 7.4. The concentration of microsomes was 0.5 g/L. To initiate the incubations, 50 μL of NADPH solution preincubated at 37°C was added. […] Parallel triplicate samples were prepared for each time point, including 0, 2, 5, 10, 15, 30, 60, 90, and 120 min. To stop the reactions at each time point, 250 μL of ice-cold precipitating agent (acetonitrile/methanol, 1:1, v/v) containing 500 ng/mL of L-phencynonate (IS) was added to the incubation mixture. The samples were vortexed for 2 min at 4°C and then centrifuged at 13,800×g for 10 min. The supernatants were analyzed using an LC-MS-MS approach. […]
(§2) In Formula 3, t1/2 (min) represents the half-life of ammoxetine in liver microsomes. It is calculated by dividing −0.693 by the resulting slope (k e) obtained from a natural logarithm plot of the remaining concentration of ammoxetine against incubation time. […]

MLM = assay: Hepatic microsome stability assay, MLM; type: in vitro ADME, monkey; settings: predicted hepatic clearance
Protocol: as §1, §2

- half-life at 1 μmol/L [1]: 7.57 ± 0.12 min
- CL h (MLM): 40.73 ± 0.04 mL/min/kg
Compound: CNCC[C@H](Oc1cccc2c1OCO2)c1cccs1 [ammoxetine]
